5 molecules from patent US5212187A, “Pyridyl alkylamine compounds which are useful against histamine H1 and H2 receptors” (Zyma SA, priority 1991, dated 1993) can be followed below.

In one assay the target is T1, histamine H1 -receptors (Cavia porcellus, UniProt P31389).
T1 construct: isolated guinea pig ileum (H1); from tissue; host or cells: isolated guinea pig ileum
Kind of assay: in vitro histamine H1-antagonism on isolated guinea pig ileum. To be noted: cumulative concentration/action curves (van Rossum), read-out: H1 -antagonism ileum -log KB (converted). From the text:
(§1) The compounds of formula I according to the invention are distinguished by a novel overall pharmacological activity that has not been described hitherto. […] Suitable for differentiating the two types of action are, for example, in vitro tests on isolated spontaneously beating guinea pig right atrium (H2) and on isolated guinea pig ileum (H1) (Black, J. W.; Duncan, W. A. M.; Durant, G. J., Ganellin, C. R.; Parsons, M. E. (1972), "Definition and Antagonism of Histamine H2 -receptors", Nature 236, 385-390). The concentration/action curves for determining the pharmacological parameters (-log KB) are recorded using a cumulative technique according to van Rossum, J. M. (1963), "Cumulative Dose-Response Curves. II. Technique for the Making of Dose-Response Curves in Isolated Organs and the Evaluation of Drug Parameters", Arch. Int. Pharmacodyn. Ther. 143, 299-307.
(§2) (determined from isolated guinea pig ileum and atrium, […]

The next assay addresses T2, histamine H2 -receptors (Cavia porcellus, UniProt P47747).
T2 construct: isolated spontaneously beating guinea pig right atrium (H2); from tissue; host or cells: isolated spontaneously beating guinea pig right atrium
Kind of assay: in vitro histamine H2-antagonism on isolated spontaneously beating guinea pig right atrium. To be noted: cumulative concentration/action curves (van Rossum), read-out: H2 -antagonism atrium -log KB (converted).
Description: as §1, §2

The term Kb denotes the equilibrium dissociation constant of an antagonist, usually derived from a functional assay.

T1 sequence (P31389 whole entry): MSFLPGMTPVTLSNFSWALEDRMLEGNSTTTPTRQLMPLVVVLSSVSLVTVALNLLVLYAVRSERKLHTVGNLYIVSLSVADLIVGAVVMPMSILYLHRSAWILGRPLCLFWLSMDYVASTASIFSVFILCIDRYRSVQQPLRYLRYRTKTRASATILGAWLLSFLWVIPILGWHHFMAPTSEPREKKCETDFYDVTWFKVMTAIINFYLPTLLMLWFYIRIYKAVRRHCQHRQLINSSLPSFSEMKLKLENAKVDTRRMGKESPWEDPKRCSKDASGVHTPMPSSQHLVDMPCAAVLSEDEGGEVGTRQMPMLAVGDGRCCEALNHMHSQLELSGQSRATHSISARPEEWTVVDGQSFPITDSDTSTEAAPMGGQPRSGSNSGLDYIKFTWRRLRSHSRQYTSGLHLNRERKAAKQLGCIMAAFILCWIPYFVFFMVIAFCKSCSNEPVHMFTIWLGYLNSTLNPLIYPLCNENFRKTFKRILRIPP
T2 sequence (P47747 whole entry): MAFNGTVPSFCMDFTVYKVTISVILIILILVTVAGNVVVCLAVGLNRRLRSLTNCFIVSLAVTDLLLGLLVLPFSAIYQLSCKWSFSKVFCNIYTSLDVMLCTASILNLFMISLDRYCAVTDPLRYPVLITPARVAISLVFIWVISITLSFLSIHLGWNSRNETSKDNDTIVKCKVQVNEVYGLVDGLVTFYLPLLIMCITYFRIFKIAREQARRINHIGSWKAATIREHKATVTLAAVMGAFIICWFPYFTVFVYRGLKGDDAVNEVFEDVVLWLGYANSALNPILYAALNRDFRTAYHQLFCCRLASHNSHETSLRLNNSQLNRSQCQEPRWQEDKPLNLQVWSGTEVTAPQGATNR

`CN(CCCCNC(=NCCSCc1csc(NC(=N)N)n1)NC#N)CCC(c1ccc(Cl)cc1)c1ccccn1` (stereo not shown) [Example 17, N-[4-[N-[3-(4-chlorophenyl)-3-(2-pyridyl)propyl]-N-methylamino]butyl]-N'-cyano-N"-[2-[[(2-guanidino-4-thiazolyl)methyl]thio]ethyl]guanidine]: the Kb at histamine H1 -receptors is 5.01 nM; at histamine H2 -receptors, 166 nM.

As for `CN(CCCCCCCNC(=NCCSCc1csc(NC(=N)N)n1)NC#N)CCC(c1ccc(Cl)cc1)c1ccccn1` (stereo not shown) [Example 20, N-[7-[N-[3-(4-chlorophenyl)-3-(2-pyridyl)propyl]-N-methylamino]heptyl]-N'-cyano-N"-[2-[[(2-guanidino-4-thiazolyl)methyl]thio]ethyl]guanidine], the Kb on histamine H1 -receptors was 4.17 nM; on histamine H2 -receptors, 30.9 nM.

As to `CN(CCCCCCCNC(=C[N+](=O)[O-])NCCSCc1csc(NC(=N)N)n1)CCC(c1ccc(Cl)cc1)c1ccccn1` (stereo not shown) [Example 23, N-[7-[N-[3-(4-chlorophenyl)-3-(2-pyridyl)propyl]-N-methylamino]heptyl]-N'-[2-[[(2-guanidino-4-thiazolyl)methyl]thio]ethyl]-2-nitro-1,1-ethenediamine], the figures for the Kb on histamine H1 -receptors and on histamine H2 -receptors were 5.01 nM and 12.6 nM, respectively.

Regarding `CN(C)Cc1ccc(CSCCNC(=O)NCCCCN(C)CCN(Cc2ccc(F)cc2)c2ccccn2)o1` [Example 103, N-[2-[[5-[(dimethylamino)methyl]furfuryl]thio]ethyl]-N'-[4-[N-[2-[N-(4-fluorobenzyl)-N-(2-pyridyl)amino]ethyl]-N-methylamino]butyl]urea], the Kb on histamine H1 -receptors was 24.5 nM; on histamine H2 -receptors, 1200 nM.

`CN(CCCCCNC(=NCCSCc1csc(NC(=N)N)n1)NC#N)CCC(c1ccc(Cl)cc1)c1ccccn1` (stereo not shown) [Example 18, N-[5-[N-[3-(4-chlorophenyl)-3-(2-pyridyl)propyl]-N-methylamino]pentyl]-N'-cyano-N"-[2-[[(2-guanidino-4-thiazolyl)methyl]thio]ethyl]guanidine]: the results for the Kb at histamine H1 -receptors and at histamine H2 -receptors were 3.72 nM and 126 nM, respectively.
